Source: US7507760B2, “N-type calcium channel blockers” (Neuromed Pharmaceuticals Ltd., priority 2004, dated 2009)
Like-named read-outs stand apart in the source and are kept apart here.

How the values were obtained:
[1] = test system: T-type over L-type channels; conditions: cited from earlier work
[2] = test system: rat formalin model (paw flinches); assay: Formalin-induced pain model; format: in vivo; conditions: 30 mg/kg IP, 10 minutes prior to formalin, saline control=100%
Description: […] The compounds were reconstituted to stock solutions of approximately 10 mg/ml in propylene glycol. Eight Holtsman male rats of 275-375 g size were randomly selected per test article.
The following study groups in Table 6 were used, with test article, vehicle control (propylene glycol) and saline delivered intraperitoneally (IP):
Prior to initiation of drug delivery, baseline behavioral and testing data were taken.
On the morning of testing, a small metal band (0.5 g) was loosely placed around the right hind paw. The rat was placed in a cylindrical Plexiglas chamber for adaptation a minimum of 30 minutes. Test Article or Vehicle Control Article was administered 10 minutes prior to formalin injection (50 μl of 5% formalin) into the dorsal surface of the right hindpaw of the rat. The animal was then placed into the chamber of the automated formalin apparatus where movement of the formalin injected paw was monitored and the number of paw flinches tallied by minute over the next 60 minutes (Malmberg, A. B., supra).
Results are presented as Maximum Possible Effect±SEM, where saline control=100% (Table 7)

[3] = molecular target: T1, rat brain N-type calcium channel subunits (α1B+α2δ+β1b cDNA subunits) (Rattus norvegicus, UniProt Q02294); assay: N-type calcium channel block, whole cell patch clamp in HEK 293 cells; format: cell-based; conditions: holding potential −80 mV to +10 mV, 5 mM BaCl2
T1 construct: expressed in transfected cells; host or cells: HEK 293
Description: (§1) Normalized dose-response curves were fit (Sigmaplot 4.0, SPSS Inc., Chicago, Ill.) by the Hill equation to determine IC50 values. Steady-state inactivation curves were plotted as the normalized test pulse amplitude following 5 s inactivating prepulses at +10 mV increments. Inactivation curves were fit (Sigmaplot 4.0) with the Boltzman equation, Ipeak (normalized)=1/(1+exp((V-Vh)z/25.6)), where V and Vh are the conditioning and half inactivation potentials, respectively, and z is the slope factor.
The methods of Example 11 were followed with slight modifications as will be apparent from the description below.
N-type calcium channel blocking activity was assayed in human embryonic kidney cells, HEK 293, stably transfected with the rat brain N-type calcium channel subunits (α1B+α2δ+β1b cDNA subunits). Briefly, cells were cultured in Dulbecco's modified eagle medium (DMEM) supplemented with 10% fetal bovine serum, 200 U/ml penicillin and 0.2 mg/ml streptomycin at 37° C. with 5% CO2. At 85% confluency, cells were split with 0.25% trypsin/1 mM EDTA and plated at 10% confluency on glass coverslips. At 12 hours the medium was. replaced and the cells transfected using a standard calcium phosphate protocol and the appropriate calcium channel cDNAs. Fresh DMEM was supplied and the cells transferred to 28° C./5% CO2. Cells were incubated for 1 to 2 days to whole cell recording.
Whole cell patch clamp experiments were performed using an Axopatch 200B amplifier (Axon Instruments, Burlingame, Calif.) linked to a personal computer equipped with pCLAMP software. The external and internal recording solutions contained, respectively, 5 mM BaCl2, 10 mM MgCl2, 10 mM HEPES, 40 mM TEACl, 10 mM glucose, 87.5 mM CsCl (pH 7.2) and 108 mM CsMS, 4 mM MgCl2, 9 mM EGTA, 9 mM HEPES (pH 7.2). Currents were typically elicited from a holding potential of −80 mV to +10 mV using Clampex software (Axon Instruments). Typically, currents were first elicited with low frequency stimulation (0.067 Hz) and allowed to stabilize prior to application of the compounds. The compounds were then applied during the low frequency pulse trains for two to three minutes to assess tonic block, and subsequently the pulse frequency was increased to 0.2 Hz to assess frequency dependent block. Data were analyzed using Clampfit (Axon Instruments) and SigmaPlot 4.0 (Jandel Scientific).

[4] = molecular target: T2, human α1G T-type channels (Homo sapiens, UniProt O43497); assay: Block of α1G T-type channels, whole-cell patch clamp in HEK cells; format: cell-based; conditions: test pulse −40 mV
T2 construct: expressed in transfected cells
Description: Standard patch-clamp techniques were employed to identify blockers of T-type currents. Briefly, previously described HEK cell lines stably expressing human α1G T-type channels were used for all the recordings (passage #: 4-20, 37° C., 5% CO2). To obtain T-type currents, plastic dishes containing semi-confluent cells were positioned on the stage of a ZEISS AXIOVERT S100 microscope after replacing the culture medium with external solution (Table 3). Whole-cell patches were obtained using pipettes (borosilicate glass with filament, O.D.: 1.5 mm, I.D.: 0.86 mm, 10 cm length), fabricated on a SUTTER P-97 puller with resistance values of ˜5 MΩ (Table 4 ).
T-type currents were reliably obtained by using two voltage protocols: “non-inactivating”, and “inactivation”. In the non-inactivating protocol, the holding potential is set at −110 mV and with a pre-pulse at −100 mV for 1 second prior to the test pulse at −40 mV for 50 ms. In the inactivation protocol, the pre-pulse is at approximately −85 mV for 1 second, which inactivates about ^15% of the T-type channels.
Test compounds were dissolved in external solution, 0.1-0.01% DMSO. After ˜10 min rest, they were applied by gravity close to the cell using a WPI microfil tubing. The “non-inactivated” pre-pulse was used to examine the resting block of a compound. The “inactivated” protocol was employed to study voltage-dependent block. However, the initial data shown below were mainly obtained using the non-inactivated protocol only. IC50 values are shown for various compounds of the invention in Table 5.

[5] = molecular target: T3, P/Q-type channels (α1A+α2δ+β1b cDNA subunits) (Homo sapiens, UniProt O00555); assay: Selectivity for N-type over P/Q-type channels, whole cell patch recordings in HEK 293 cells; format: cell-based
T3 construct: expressed in transfected cells; host or cells: HEK 293 (human embryonic kidney cells)
Description: (§2) Calcium channel blocking activity was measured using whole cell patch recordings on human embryonic kidney cells transiently expressing rat α1B+α2δ+β1b channels (N-type channels) with 5 mM barium as a charge carrier. Channel block was also measured in P/Q-type channels (α1A+α2δ+β1b cDNA subunits) and L-type channels (α1C+α2δ+β1b cDNA subunits).
(§3) HEK 293 Host cells (ATCC# CRL 1573) were grown in standard DMEM medium supplemented with 2 mM glutamine and 10% fetal bovine serum. HEK 293 cells were transfected by a standard calcium-phosphate-DNA coprecipitation method using the rat α1B+β1b+α2δ N-type calcium channel subunits in a vertebrate expression vector (for example, see Current Protocols in Molecular Biology).
(§4) After an incubation period of 24 to 72 hours, the culture medium was removed and replaced with external recording solution (see below). Whole cell patch clamp experiments were performed using an Axopatch 200B amplifier (Axon Instruments, Burlingame, Calif.) linked to an IBM compatible personal computer equipped with pCLAMP software. Borosilicate glass patch pipettes (Sutter Instrument Co., Novato, Calif.) were polished (Microforge, Narishige, Japan) to a resistance of about 4 MΩ when filled with cesium methanesulfonate internal solution (composition in MM: 109 CsCH3 SO4, 4 MgCl2, 9 EGTA, 9 HEPES, pH 7.2). Cells were bathed in 5 mM Ba^++ (in mM: 5 BaCl2, 1 MgCl2, 10 HEPES, 40 tetraethylammonium chloride, 10 glucose, 87.5 CsCl pH 7.2). Current data shown were elicited by a train of 100 ms test pulses at 0.066 Hz from −100 mV and/or −80 mV to various potentials (min. −20 mV, max. +30 mV). Drugs were perfused directly into the vicinity of the cells, using a microperfusion system.
as §1
(§5) The same protocol was followed for cell lines expressing P/Q-type channels and L-type channels.

[6] = molecular target: T4, L-type channels (α1C+α2δ+β1b cDNA subunits) (Homo sapiens, UniProt Q13936); assay: Selectivity for N-type over L-type channels, whole cell patch recordings in HEK 293 cells; format: cell-based
T4 construct: expressed in transfected cells; host or cells: HEK 293 (human embryonic kidney cells)
T4 sequence (Q13936 whole entry): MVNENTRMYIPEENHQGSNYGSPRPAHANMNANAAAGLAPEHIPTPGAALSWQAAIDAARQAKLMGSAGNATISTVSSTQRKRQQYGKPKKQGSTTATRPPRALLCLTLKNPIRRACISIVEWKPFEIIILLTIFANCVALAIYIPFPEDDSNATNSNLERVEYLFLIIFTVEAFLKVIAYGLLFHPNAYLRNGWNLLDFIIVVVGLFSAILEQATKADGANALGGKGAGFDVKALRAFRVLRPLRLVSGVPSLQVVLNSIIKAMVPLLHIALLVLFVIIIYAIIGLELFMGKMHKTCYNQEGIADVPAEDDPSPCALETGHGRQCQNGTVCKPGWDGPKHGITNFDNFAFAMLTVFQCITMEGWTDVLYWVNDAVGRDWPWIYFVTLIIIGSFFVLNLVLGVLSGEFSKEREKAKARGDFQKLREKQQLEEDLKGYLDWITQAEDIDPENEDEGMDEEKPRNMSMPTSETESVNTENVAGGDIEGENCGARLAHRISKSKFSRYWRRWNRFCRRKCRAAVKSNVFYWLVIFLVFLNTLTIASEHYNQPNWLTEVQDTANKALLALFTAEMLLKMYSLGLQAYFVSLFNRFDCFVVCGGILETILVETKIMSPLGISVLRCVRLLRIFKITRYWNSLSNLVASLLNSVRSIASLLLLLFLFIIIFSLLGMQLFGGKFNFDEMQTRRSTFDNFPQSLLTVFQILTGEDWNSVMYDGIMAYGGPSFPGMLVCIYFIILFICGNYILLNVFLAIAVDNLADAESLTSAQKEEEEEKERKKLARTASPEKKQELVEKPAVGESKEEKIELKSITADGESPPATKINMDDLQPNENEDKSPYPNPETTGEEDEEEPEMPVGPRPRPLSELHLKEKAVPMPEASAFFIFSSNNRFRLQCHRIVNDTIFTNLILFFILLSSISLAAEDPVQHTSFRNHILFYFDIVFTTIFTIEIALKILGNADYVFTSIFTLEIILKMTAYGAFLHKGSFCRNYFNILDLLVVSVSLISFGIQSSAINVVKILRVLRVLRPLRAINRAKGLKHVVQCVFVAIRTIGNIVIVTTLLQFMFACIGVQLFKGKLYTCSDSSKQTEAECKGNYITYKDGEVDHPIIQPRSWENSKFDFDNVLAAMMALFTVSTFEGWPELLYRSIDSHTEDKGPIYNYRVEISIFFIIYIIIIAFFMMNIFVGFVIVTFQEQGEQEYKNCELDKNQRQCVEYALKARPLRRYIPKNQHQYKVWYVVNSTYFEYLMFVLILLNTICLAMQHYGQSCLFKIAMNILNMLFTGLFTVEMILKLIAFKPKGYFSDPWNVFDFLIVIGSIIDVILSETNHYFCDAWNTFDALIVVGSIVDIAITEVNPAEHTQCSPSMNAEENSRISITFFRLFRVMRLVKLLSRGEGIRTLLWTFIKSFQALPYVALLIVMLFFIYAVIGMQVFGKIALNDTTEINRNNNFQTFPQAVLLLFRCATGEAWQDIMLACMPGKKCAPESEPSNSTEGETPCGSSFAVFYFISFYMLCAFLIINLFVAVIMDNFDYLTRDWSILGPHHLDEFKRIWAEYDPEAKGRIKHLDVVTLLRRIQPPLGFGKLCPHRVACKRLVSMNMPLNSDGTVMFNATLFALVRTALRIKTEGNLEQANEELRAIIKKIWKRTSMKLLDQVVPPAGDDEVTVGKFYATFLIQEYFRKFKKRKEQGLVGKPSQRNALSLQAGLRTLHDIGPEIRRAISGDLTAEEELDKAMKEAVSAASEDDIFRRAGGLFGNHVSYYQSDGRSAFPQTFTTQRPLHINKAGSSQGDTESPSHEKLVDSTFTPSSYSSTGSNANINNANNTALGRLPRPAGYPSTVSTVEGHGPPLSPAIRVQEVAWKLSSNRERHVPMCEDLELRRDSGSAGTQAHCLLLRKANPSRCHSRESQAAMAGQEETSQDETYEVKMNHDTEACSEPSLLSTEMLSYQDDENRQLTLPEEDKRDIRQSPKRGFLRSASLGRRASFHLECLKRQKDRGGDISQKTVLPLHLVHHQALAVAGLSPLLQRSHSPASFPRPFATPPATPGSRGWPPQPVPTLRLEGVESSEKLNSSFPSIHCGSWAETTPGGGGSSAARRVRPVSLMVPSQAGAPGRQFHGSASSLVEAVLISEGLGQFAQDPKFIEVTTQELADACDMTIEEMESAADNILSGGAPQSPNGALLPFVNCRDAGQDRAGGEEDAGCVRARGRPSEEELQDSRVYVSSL
T4 sequence (P54289 25-956 partner limits assumed): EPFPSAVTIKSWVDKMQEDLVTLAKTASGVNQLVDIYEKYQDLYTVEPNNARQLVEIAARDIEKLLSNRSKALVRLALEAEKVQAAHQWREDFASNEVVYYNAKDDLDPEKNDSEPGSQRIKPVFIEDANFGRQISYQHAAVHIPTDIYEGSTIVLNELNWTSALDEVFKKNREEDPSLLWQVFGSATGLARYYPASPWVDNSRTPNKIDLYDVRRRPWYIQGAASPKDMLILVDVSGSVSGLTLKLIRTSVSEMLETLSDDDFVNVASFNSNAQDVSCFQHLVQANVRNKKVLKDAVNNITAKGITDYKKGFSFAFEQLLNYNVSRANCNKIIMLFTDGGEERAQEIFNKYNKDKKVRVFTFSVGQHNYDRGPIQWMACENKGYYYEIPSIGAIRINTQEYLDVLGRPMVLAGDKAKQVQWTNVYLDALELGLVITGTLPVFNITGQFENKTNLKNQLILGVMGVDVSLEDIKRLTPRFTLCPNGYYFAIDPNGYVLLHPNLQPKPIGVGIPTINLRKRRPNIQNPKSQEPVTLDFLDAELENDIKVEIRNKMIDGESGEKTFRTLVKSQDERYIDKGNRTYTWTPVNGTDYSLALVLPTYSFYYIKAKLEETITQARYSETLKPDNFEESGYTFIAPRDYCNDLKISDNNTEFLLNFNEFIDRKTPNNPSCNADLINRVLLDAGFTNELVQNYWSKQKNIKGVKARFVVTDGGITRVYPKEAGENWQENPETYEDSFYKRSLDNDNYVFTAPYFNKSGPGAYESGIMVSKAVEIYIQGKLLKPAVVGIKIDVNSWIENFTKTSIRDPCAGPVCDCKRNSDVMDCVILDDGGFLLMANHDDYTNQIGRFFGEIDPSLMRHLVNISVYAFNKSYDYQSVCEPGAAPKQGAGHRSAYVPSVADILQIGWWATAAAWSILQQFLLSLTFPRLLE
T4 sequence (P54289 957-1103 partner limits assumed): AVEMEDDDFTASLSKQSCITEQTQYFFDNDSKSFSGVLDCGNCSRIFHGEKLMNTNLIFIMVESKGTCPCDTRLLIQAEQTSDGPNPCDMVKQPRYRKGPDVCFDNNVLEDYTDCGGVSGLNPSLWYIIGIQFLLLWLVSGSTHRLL
T4 sequence (Q02641 whole entry partner): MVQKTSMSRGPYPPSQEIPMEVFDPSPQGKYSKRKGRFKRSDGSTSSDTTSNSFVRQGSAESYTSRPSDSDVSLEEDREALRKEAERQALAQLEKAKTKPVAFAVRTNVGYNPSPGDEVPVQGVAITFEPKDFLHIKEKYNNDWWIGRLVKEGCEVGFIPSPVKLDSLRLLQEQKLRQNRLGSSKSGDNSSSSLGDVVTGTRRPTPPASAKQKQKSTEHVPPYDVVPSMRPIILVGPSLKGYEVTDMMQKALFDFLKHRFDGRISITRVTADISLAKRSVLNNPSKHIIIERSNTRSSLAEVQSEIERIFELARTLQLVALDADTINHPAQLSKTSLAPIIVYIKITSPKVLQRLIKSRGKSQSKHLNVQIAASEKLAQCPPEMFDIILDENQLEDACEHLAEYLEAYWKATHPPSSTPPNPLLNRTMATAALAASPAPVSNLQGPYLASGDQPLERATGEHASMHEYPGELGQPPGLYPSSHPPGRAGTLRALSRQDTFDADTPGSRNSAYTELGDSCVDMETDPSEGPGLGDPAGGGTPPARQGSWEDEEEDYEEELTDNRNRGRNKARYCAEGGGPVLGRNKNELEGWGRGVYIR
Description: as §2, §3, §4, §1, §5

[7] = frequency dependent block, pulse frequency 0.2 Hz, read-out: IC50 at 0.2 Hz
[8] = tonic block, low frequency stimulation 0.067 Hz, read-out: IC50 at 0.067 Hz
[9] = −80 mV (inactivation protocol), read-out: IC50 at −80 mV
[10] = −100 mV (non-inactivating protocol), read-out: IC50 at −100 mV

Row | IC50 [3, 7] [nM] | IC50 [3, 8] [nM] | IC50 [4, 9] [nM] | IC50 [4, 10] [nM] | selectivity for N-type over P/Q-type channels [5] | selectivity for N-type over L-type channels [6] | Compound | selective for T-type over L-type channels [1] | Maximum Possible Effect ± SEM, Phase I [2] [%] | Maximum Possible Effect ± SEM, Phase II [2] [%] | Maximum Possible Effect ± SEM, Phase IIA [2] [%]
1 |  |  |  |  |  |  | COCC(=O)O[C@]1(CCN(C)CCCc2nc3ccccc3[nH]2)CCc2cc(F)ccc2[C@@H]1C(C)C [Mibefradil] | 10-30 fold |  |  | 
2 | 62 | 93 | 390 | 230 | approximately 12 fold | greater than 5000 fold | COc1c(C(C)(C)C)cc(C(=O)N(C)[C@H]2CCN(C(=O)CCCCC(c3ccc(F)cc3)c3ccc(F)cc3)C2)cc1C(C)(C)C [Compound P4, (S)-N-{1-[6,6-Bis-(4-fluoro-phenyl)-hexanoyl]-pyrrolidin-3-yl}-3,5-di-tert-butyl-4-methoxy-N-methyl-benzamide] |  | 50 ± 10 | 51 ± 10 | 42 ± 13
3 | 32 | 67 | 51 | 117 | approximately 9 fold | greater than 1000 fold | (R)-6,6-Bis-(4-fluoro-phenyl)-hexanoic acid[1-(3,5-di-tert-butyl-4-methoxy-benzoyl)-pyrrolidin-3-yl]-methyl-amide [Compound P2] |  | 70 ± 8 | 82 ± 9 | 71 ± 12
4 | 91 | 120 | 8 |  | approximately 23 fold | ~75 fold | COc1c(C(C)(C)C)cc(C(=O)N(C)[C@@H]2CCN(C(=O)CCCCC(c3ccc(F)cc3)c3ccc(F)cc3)C2)cc1C(C)(C)C [Compound P1, (R)—N-{1-[6,6-Bis-(4-fluoro-phenyl)-hexanoyl]-pyrrolidin-3-yl}-3,5-di-tert-butyl-4-methoxy-N-methyl-benzamide] |  | 94 ± 11 | 79 ± 14 | 72 ± 16
